Measurements as given in patent US20210300940A1 (Merck Patent GmbH, priority 2018, published 2021).

Columns and labels:
TLR7 = target: T1, TLR7 (Homo sapiens, UniProt Q9NYK1); experiment: HEK/293 TLR7 Cell Assay; format: cell-based; conditions: TLR7/NFKb HEK cells, R848 agonist 10 uM final concentration, Steady-Glo readout; read-out: TLR7 potency
T1 construct: expressed in transfected cells; host or cells: HEK/293 cells carrying TLR7 and an NF-kB luciferase reporter
T1 sequence (Q9NYK1 27-1049): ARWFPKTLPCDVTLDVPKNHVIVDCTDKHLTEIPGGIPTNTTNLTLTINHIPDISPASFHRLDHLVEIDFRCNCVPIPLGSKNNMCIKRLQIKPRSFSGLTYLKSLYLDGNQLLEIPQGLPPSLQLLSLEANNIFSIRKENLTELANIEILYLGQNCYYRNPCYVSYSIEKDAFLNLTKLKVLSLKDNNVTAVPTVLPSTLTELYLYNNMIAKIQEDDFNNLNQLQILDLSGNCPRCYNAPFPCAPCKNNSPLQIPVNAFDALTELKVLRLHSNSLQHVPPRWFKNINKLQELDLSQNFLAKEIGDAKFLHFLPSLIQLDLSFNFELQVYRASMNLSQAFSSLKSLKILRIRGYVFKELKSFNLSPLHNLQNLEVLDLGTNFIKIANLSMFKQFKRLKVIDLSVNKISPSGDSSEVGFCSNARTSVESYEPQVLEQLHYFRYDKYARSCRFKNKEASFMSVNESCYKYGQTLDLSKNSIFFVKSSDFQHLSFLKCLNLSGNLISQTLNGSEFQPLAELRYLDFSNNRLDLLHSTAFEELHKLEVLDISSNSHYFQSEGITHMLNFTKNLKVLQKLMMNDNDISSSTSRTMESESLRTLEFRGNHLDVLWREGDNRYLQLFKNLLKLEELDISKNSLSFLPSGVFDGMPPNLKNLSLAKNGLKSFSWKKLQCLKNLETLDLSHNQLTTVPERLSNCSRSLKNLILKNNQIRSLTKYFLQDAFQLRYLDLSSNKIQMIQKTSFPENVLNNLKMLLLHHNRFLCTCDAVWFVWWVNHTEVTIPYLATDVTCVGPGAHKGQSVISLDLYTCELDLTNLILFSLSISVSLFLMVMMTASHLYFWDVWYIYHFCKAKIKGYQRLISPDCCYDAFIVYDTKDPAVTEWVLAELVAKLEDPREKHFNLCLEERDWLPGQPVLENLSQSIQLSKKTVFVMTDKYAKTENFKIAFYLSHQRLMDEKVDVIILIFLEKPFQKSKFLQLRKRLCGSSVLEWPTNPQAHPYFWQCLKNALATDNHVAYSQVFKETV
Summary of the method: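 Compounds added to HEK cells expressing TLR7 with an NFκB reporter 30 min ahead of 10 uM R848 challenge; luciferase signal (Steady-Glo) measured after 5 h, cells having been seeded 24 h earlier at 5000 per well.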

TLR8 = target: T2, TLR8 (Homo sapiens, UniProt Q9NR97); experiment: HEK/293 TLR8 Cell Assay; format: cell-based; conditions: HEK cells, R848 agonist 30 uM final concentration, Steady-Glo readout; read-out: TLR8 potency
T2 construct: expressed in transfected cells; host or cells: HEK/293 reporter cells (NF-kB luciferase)
T2 sequence (Q9NR97 27-1041): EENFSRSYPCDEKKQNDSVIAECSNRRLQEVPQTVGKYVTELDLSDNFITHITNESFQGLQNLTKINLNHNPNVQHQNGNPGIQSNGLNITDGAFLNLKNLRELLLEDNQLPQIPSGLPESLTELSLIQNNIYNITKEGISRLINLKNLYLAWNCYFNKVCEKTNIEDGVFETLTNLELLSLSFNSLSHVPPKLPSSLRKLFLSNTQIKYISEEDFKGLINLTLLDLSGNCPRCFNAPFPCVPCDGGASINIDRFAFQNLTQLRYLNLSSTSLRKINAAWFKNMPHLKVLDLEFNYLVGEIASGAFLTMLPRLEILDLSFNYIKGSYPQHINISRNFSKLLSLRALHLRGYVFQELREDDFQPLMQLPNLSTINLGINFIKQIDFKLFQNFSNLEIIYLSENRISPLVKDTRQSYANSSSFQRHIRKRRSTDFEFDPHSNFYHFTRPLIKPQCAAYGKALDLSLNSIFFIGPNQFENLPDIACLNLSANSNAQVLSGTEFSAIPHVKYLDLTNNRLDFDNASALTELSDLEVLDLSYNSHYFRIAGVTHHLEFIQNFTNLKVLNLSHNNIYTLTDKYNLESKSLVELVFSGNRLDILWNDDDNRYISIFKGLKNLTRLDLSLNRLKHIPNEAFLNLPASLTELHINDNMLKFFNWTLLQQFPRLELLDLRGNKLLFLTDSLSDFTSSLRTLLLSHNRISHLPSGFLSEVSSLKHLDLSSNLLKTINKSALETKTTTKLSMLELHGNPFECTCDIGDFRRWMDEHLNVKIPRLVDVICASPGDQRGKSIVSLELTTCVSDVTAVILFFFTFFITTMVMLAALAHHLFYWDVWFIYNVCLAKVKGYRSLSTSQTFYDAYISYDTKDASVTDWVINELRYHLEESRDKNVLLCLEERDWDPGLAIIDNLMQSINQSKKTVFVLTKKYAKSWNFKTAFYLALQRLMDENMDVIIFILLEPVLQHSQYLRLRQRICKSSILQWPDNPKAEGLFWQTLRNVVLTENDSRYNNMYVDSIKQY

SMILES | IC50 (TLR7) | IC50 (TLR8)
CN(C)CCC(=O)N[C@@H]1C[C@H](C(F)(F)F)CN(c2ccc(C#N)c3nccnc23)C1 [Example 75] | < 75 nM | < 75 nM
C[C@@H]1CN(c2ccc(C#N)c3nccnc23)C[C@H](C(=O)NC[C@@H]2CN(C)CCO2)O1 (single isomer, unassigned) [Example 325] | < 75 nM | < 75 nM
C[C@H]1C[C@@H](NC(=O)[C@@H]2CCCN2)CN(c2ccc(C#N)c3nccnc23)C1 [Example 175, (S)-Pyrrolidine-2-carboxylic acid [(3R,5S)-1-(8-cyano-quinoxalin-5-yl)-5-methyl-piperidin-3-yl]-amide] | 75 to 150 nM | < 75 nM
CC(=O)NCCN[C@@H]1C[C@H](C)CN(c2ccc(C#N)c3nccnc23)C1 [Example 49, N-{2-[(3R,5S)-1-(8-Cyano-quinoxalin-5-yl)-5-methyl-piperidin-3-ylamino]-ethyl}-acetamide] | < 75 nM | < 75 nM
N#Cc1ccc(N2C[C@@H](C(F)(F)F)O[C@@H](C(=O)NC[C@H](O)CO)C2)c2nccnc12 (single isomer, unassigned) [Example 280] | 75 to 150 nM | > 150 nM
CC(C)[C@H](O)C(=O)N[C@@H]1C[C@H](C)CN(c2cnc(C#N)c3nccnc23)C1 [Example 196, (S)—N-[(3R,5S)-1-(5-Cyano-pyrido[3,4-b]pyrazin-8-yl)-5-methyl-piperidin-3-yl]-2-hydroxy-3-methyl-butyramide] | > 150 nM | < 75 nM
CN1CC[C@@](F)(CNC(=O)[C@@H]2CN(c3cnc(C#N)c4ncccc34)C[C@H](C(F)(F)F)O2)C1 (single isomer, unassigned) [Example 349] | 75 to 150 nM | 75 to 150 nM
C[C@H]1C[C@@H](NC(=O)CN(CCN)CCO)CN(c2ccc(C#N)c3nccnc23)C1 [Example 150, 2-[(2-Amino-ethyl)-(2-hydroxy-ethyl)-amino]-N-[(3R,5S)-1-(8-cyano-quinoxalin-5-yl)-5-methyl-piperidin-3-yl]-acetamide] | < 75 nM | < 75 nM
N#Cc1ccc(N2C[C@H](NC(=O)[C@@H]3CCCN3)C[C@H](C(F)(F)F)C2)c2nccnc12 [Example 124, (2S)—N-[(3R,5S)-1-(8-cyanoquinoxalin-5-yl)-5-(trifluoromethyl)piperidin-3-yl]pyrrolidine-2-carboxamide] | < 75 nM | < 75 nM
C[C@@H]1CN(c2ccc(C#N)c3nccnc23)C[C@H](C(=O)NCC(C)(C)O)O1 [Example 246, (2R,6R)-4-(8-Cyano-quinoxalin-5-yl)-6-methyl-morpholine-2-carboxylic acid (2-hydroxy-2-methyl-propyl)-amide] | < 75 nM | < 75 nM
CN(C)CCC(=O)N[C@@H]1C[C@H](C(F)(F)F)CN(c2ccc(C(F)(F)F)c3ncccc23)C1 [Example 64, 3-(dimethylamino)-N-[(3R,5S)-5-(trifluoromethyl)-1-[8-(trifluoromethyl)quinolin-5-yl]piperidin-3-yl]propanamide] | < 75 nM | < 75 nM

More lines, now with the values ahead:

IC50 (TLR7) | IC50 (TLR8) | SMILES
> 150 nM | 75 to 150 nM | C[C@@H](O)[C@H](N)C(=O)N1CCC(CC(=O)N[C@@H]2C[C@H](C(F)(F)F)CN(c3ccc(C#N)c4ncccc34)C2)CC1 [Example 184, 2-[1-((2S,3R)-2-Amino-3-hydroxy-butyryl)-piperidin-4-yl]-N-[(3R,5S)-1-(8-cyano-quinolin-5-yl)-5-trifluoromethyl-piperidin-3-yl]-acetamide]
< 75 nM | > 150 nM | Cc1ccc(N2C[C@H](NC(=O)CC3CCN(C(C)C)CC3)CC(F)(F)C2)c2cccnc12 [Example 110, N—[(R)-5,5-Difluoro-1-(8-methyl-quinolin-5-yl)-piperidin-3-yl]-2-(1-isopropyl-piperidin-4-yl)-acetamide]
< 75 nM | < 75 nM | C[C@H]1C[C@@H](NCCC(=O)NC2CS(=O)(=O)C2)CN(c2ccc(C(F)(F)F)c3ncccc23)C1 [Example 54, N-(1,1-Dioxo-1lambda6-thietan-3-yl)-3-[(3R,5S)-5-methyl-1-(8-trifluoromethyl-quinolin-5-yl)-piperidin-3-ylamino]-propionamide]
> 150 nM | > 150 nM | C[C@@H]1CN(c2cnc(C#N)c3ncccc23)C[C@H](CN2CCN(S(N)(=O)=O)CC2)O1 [Example 382, 4-{[(2S,6R)-4-(8-cyano-1,7-naphthyridin-5-yl)-6-methylmorpholin-2-yl]methyl}piperazine-1-sulfonamide]
75 to 150 nM | < 75 nM | CC(C(=O)N[C@@H]1C[C@H](C(F)(F)F)CN(c2ccc(C(F)(F)F)c3ncccc23)C1)N1CCN(C)CC1 (single isomer, unassigned) [Example 94]
> 150 nM | > 150 nM | C[C@@H]1CN(c2cnc(C#N)c3ncccc23)C[C@H](C(=O)NC2CCNCC2(F)F)O1 (stereo partly drawn) [Example 302, (2R,6R)-4-(8-Cyano-[1,7]naphthyridin-5-yl)-6-methyl-morpholine-2-carboxylic acid (3,3-difluoro-piperidin-4-yl)-amide]
> 150 nM | 75 to 150 nM | C[C@H]1C[C@@H](NC(=O)CC2CCN(C(=O)NC(C)(C)CO)CC2F)CN(c2cnc(C#N)c3ncccc23)C1 (stereo partly drawn) [Example 149, 4-{[(3R,5S)-1-(8-Cyano-[1,7]naphthyridin-5-yl)-5-methyl-piperidin-3-ylcarbamoyl]-methyl}-3-fluoro-piperidine-1-carboxylic acid (2-hydroxy-1,1-dimethyl-ethyl)-amide]
< 75 nM | < 75 nM | Cc1ccc(N2C[C@H](CNC(=O)CC3CCN(C)CC3)O[C@H](C)C2)c2cccnc12 [Example 342, N-{[(2S,6R)-6-methyl-4-(8-methylquinolin-5-yl)morpholin-2-yl]methyl}-2-(1-methylpiperidin-4-yl)acetamide]
< 75 nM | 75 to 150 nM | C[C@@H]1CN(c2ccc(C(F)(F)F)c3ncccc23)C[C@H](CN2CCC(N3CCCC3)CC2)O1 [Example 328, 5-[(2R,6S)-2-Methyl-6-(4-pyrrolidin-1-yl-piperidin-1-ylmethyl)-morpholin-4-yl]-8-trifluoromethyl-quinoline]
< 75 nM | < 75 nM | C[C@@H]1CN(c2cnc(C#N)c3ncccc23)C[C@H](CN2CCC(F)(CN)CC2)O1 [Example 370, 5-[(2S,6R)-2-(4-Aminomethyl-4-fluoro-piperidin-1-ylmethyl)-6-methyl-morpholin-4-yl]-[1,7]naphthyridine-8-carbonitrile]
75 to 150 nM | < 75 nM | C[C@H]1C[C@@H](NC(=O)CCN)CN(c2ccc(C(F)(F)F)c3ncccc23)C1 [Example 166, 3-Amino-N-[(3R,5S)-5-methyl-1-(8-trifluoromethyl-quinolin-5-yl)-piperidin-3-yl]-propionamide]
